According to PubChem BioAssay (NCI):
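Assay format: 96-well plates, 48-hour exposure. TGI: concentration producing complete growth inhibition.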

Tests used:
Experiment in all cases: NCI anticancer screen, dose series, 48 h
BT-549 breast = test system: BT-549 breast
COLO 205 colon = test system: COLO 205 colon
HCT-15 colon = test system: HCT-15 colon
HL-60(TB) leukemia = test system: HL-60(TB) leukemia
MALME-3M melanoma = test system: MALME-3M melanoma
MDA-MB-435 = test system: MDA-MB-435
NCI-H226 lung = test system: NCI-H226 lung
NCI-H23 lung = test system: NCI-H23 lung
OVCAR-5 ovarian = test system: OVCAR-5 ovarian
SF-295 CNS = test system: SF-295 CNS
SNB-19 CNS = test system: SNB-19 CNS
UACC-257 melanoma = test system: UACC-257 melanoma
UACC-62 melanoma = test system: UACC-62 melanoma

Row | Structure (SMILES) | TGI (BT-549 breast) | TGI (COLO 205 colon) | TGI (HCT-15 colon) | TGI (HL-60(TB) leukemia) | TGI (MALME-3M melanoma) | TGI (MDA-MB-435) | TGI (NCI-H226 lung) | TGI (NCI-H23 lung) | TGI (OVCAR-5 ovarian) | TGI (SF-295 CNS) | TGI (SNB-19 CNS) | TGI (UACC-257 melanoma) | TGI (UACC-62 melanoma)
1 | CC(=O)OCC1OC(n2c3c(cc(C#N)c2=S)CCCCCC3)C(OC(C)=O)C(OC(C)=O)C1OC(C)=O (centres undefined) | > 100 µM | > 100 µM | > 100 µM | > 100 µM | > 100 µM | > 100 µM | > 100 µM | > 100 µM | > 100 µM | > 100 µM | > 100 µM | > 100 µM | > 100 µM
2 | COCC(=O)OC1CCn2c1nc1c2C(=O)C(C)=C(NC(C)=O)C1=N (centres undefined) | 3.76 µM | 37.3 µM | 27.5 µM | 4.54 µM | 2.7 µM | 3.59 µM | 33.2 µM | 23.8 µM | 25.3 µM | 30.4 µM | 38.1 µM | 8.23 µM | 3.34 µM
3 | c1nc(SSc2ncnc3nc[nH]c23)c2[nH]cnc2n1 | > 100 µM | > 100 µM | > 100 µM | > 100 µM | 18.5 µM | > 85.3 µM | > 100 µM | 9.54 µM | > 65.2 µM | 43.7 µM | > 100 µM | > 100 µM | 0.0568 µM
4 | O=C1NC(N/N=C/c2ccccc2)=N/C1=C\c1cccs1 | 33.6 µM | 19.9 µM | 48.5 µM | 36.7 µM | 27.8 µM | 34.6 µM | 25.8 µM | 40.7 µM | 70.8 µM | 34.6 µM | > 87.3 µM | > 100 µM | 38 µM
5 | CC(=O)Nc1ccc(S(=O)(=O)[N-]C2C(=O)c3ccccc3C(=O)C2[n+]2ccccc2)cc1 (centres undefined) | 13.4 µM | > 100 µM | > 100 µM | 40.5 µM | 25.1 µM | 14.9 µM | > 100 µM | 21.5 µM | 32.3 µM | 28.8 µM | 27.3 µM | 29.5 µM | 28.9 µM
6 | Clc1ccc2c(c1)CC1C[N+]3=C(CCCC3)C1=C2 (centres undefined) | > 100 µM | > 100 µM | > 100 µM | > 100 µM | > 100 µM | > 100 µM | > 100 µM | > 100 µM | > 100 µM | > 100 µM | > 100 µM | > 100 µM | > 100 µM
7 | CCOC(=O)NC(NNc1ccc([N+](=O)[O-])cc1[N+](=O)[O-])(C(F)(F)F)C(F)(F)F | > 100 µM | 29.9 µM | > 100 µM | 58.9 µM | > 100 µM | > 100 µM | > 100 µM | > 100 µM | > 100 µM | > 100 µM | > 100 µM | > 100 µM | > 100 µM
8 | O=Cc1[nH]c(=O)[nH]c(=O)c1CCl | > 100 µM | > 100 µM | > 100 µM | > 72.9 µM | > 100 µM | > 100 µM | > 100 µM | > 100 µM | > 100 µM | > 100 µM | > 100 µM | > 100 µM | > 100 µM
